Values joined by “and” are separate entries in the source; they are usually repeats but may differ in a detail not shown here. Equal entries are not always repeated.
Conditions: Liquid, transient hot wire

O=C(C(F)(F)C(F)(F)F)C(F)(C(F)(F)F)C(F)(F)F [dodecafluoro-2-methylpentan-3-one]
Conditions | thermal conductivity
192.97 K, 9415 kPa | 0.07862 W/m/K
192.97 K, 9417 kPa | 0.07861 W/m/K
192.98 K, 6038 kPa | 0.0783 W/m/K
192.98 K, 6049 kPa | 0.07834 W/m/K
192.99 K, 167 kPa | 0.07692 W/m/K
192.99 K, 173 kPa | 0.07695 W/m/K
193 K, 151 kPa | 0.07702 W/m/K
193 K, 154 kPa | 0.07718 W/m/K
193.29 K, 67553 kPa | 0.08802 W/m/K
193.29 K, 67565 kPa | 0.0877 W/m/K
193.3 K, 61029 kPa | 0.08639 W/m/K
193.31 K, 52610 kPa | 0.086 W/m/K
193.31 K, 52615 kPa | 0.08604 W/m/K
193.31 K, 61018 kPa | 0.08674 W/m/K
193.33 K, 44206 kPa | 0.08413 W/m/K
193.33 K, 44213 kPa | 0.08424 W/m/K
193.35 K, 36147 kPa | 0.08312 W/m/K
193.35 K, 36154 kPa | 0.08322 W/m/K
193.37 K, 28301 kPa | 0.08185 W/m/K
193.37 K, 28302 kPa | 0.08165 W/m/K
193.42 K, 20237 kPa | 0.08068 W/m/K
193.43 K, 20237 kPa | 0.08099 W/m/K
193.45 K, 13265 kPa | 0.07982 W/m/K
193.45 K, 13266 kPa | 0.07945 W/m/K
193.48 K, 6427 kPa | 0.07813 W/m/K
193.48 K, 6455 kPa | 0.07812 W/m/K
193.51 K, 179 kPa | 0.07701 W/m/K
193.52 K, 180 kPa | 0.07688 W/m/K
211.41 K, 165 kPa | 0.07448 W/m/K
211.41 K, 170 kPa | 0.07442 W/m/K
211.41 K, 5799 kPa | 0.07599 W/m/K
211.41 K, 5800 kPa | 0.0759 W/m/K
211.41 K, 12664 kPa | 0.07737 W/m/K
211.41 K, 12666 kPa | 0.07746 W/m/K
211.41 K, 19434 kPa | 0.07882 W/m/K and 0.07893 W/m/K
211.43 K, 26838 kPa | 0.08023 W/m/K
211.43 K, 26842 kPa | 0.08059 W/m/K
211.43 K, 34778 kPa | 0.08175 W/m/K
211.43 K, 34786 kPa | 0.0823 W/m/K
211.76 K, 52040 kPa | 0.08466 W/m/K
211.76 K, 52042 kPa | 0.08451 W/m/K
211.77 K, 60806 kPa | 0.08612 W/m/K
211.77 K, 60808 kPa | 0.0862 W/m/K
211.77 K, 67154 kPa | 0.087 W/m/K
211.78 K, 67150 kPa | 0.08734 W/m/K
211.8 K, 12660 kPa | 0.07728 W/m/K
211.8 K, 19446 kPa | 0.07881 W/m/K
211.8 K, 19450 kPa | 0.07869 W/m/K
211.81 K, 173 kPa | 0.07406 W/m/K
211.81 K, 5801 kPa | 0.07566 W/m/K
211.81 K, 5813 kPa | 0.07576 W/m/K
211.81 K, 12660 kPa | 0.0775 W/m/K
211.81 K, 26841 kPa | 0.07965 W/m/K
211.81 K, 26845 kPa | 0.08017 W/m/K
211.81 K, 34792 kPa | 0.08166 W/m/K
211.81 K, 34801 kPa | 0.08137 W/m/K
211.81 K, 43011 kPa | 0.08307 W/m/K
211.81 K, 43012 kPa | 0.0834 W/m/K
211.82 K, 163 kPa | 0.07354 W/m/K
212.17 K, 60783 kPa | 0.08526 W/m/K
212.17 K, 60795 kPa | 0.08562 W/m/K
212.17 K, 67130 kPa | 0.08706 W/m/K
212.18 K, 52048 kPa | 0.08429 W/m/K
212.18 K, 52063 kPa | 0.08422 W/m/K
212.18 K, 67138 kPa | 0.08699 W/m/K
212.23 K, 26847 kPa | 0.0801 W/m/K
212.23 K, 34793 kPa | 0.08106 W/m/K
212.23 K, 34794 kPa | 0.08097 W/m/K
212.23 K, 43021 kPa | 0.08227 W/m/K
212.24 K, 12668 kPa | 0.07725 W/m/K
212.24 K, 19437 kPa | 0.07855 W/m/K
212.24 K, 26845 kPa | 0.07971 W/m/K
212.25 K, 12667 kPa | 0.07727 W/m/K
212.26 K, 5796 kPa | 0.07549 W/m/K
212.27 K, 173 kPa | 0.0737 W/m/K
212.27 K, 5805 kPa | 0.07454 W/m/K
212.28 K, 168 kPa | 0.07378 W/m/K
212.61 K, 67097 kPa | 0.08653 W/m/K
212.61 K, 67117 kPa | 0.08664 W/m/K
212.62 K, 52074 kPa | 0.0837 W/m/K
212.62 K, 60785 kPa | 0.08529 W/m/K
212.62 K, 60787 kPa | 0.08543 W/m/K
212.63 K, 52063 kPa | 0.08349 W/m/K
212.68 K, 43009 kPa | 0.08278 W/m/K
